Data published in US20250222066A1, “COMPOSITIONS AND METHODS OF TREATING, PREVENTING OR INHIBITING A FACULTATIVE ANAEROBE INFECTION” (UNIVERSITY OF UTAH RESEARCH FOUNDATION, priority 2022, published 2025).
Entries after “also recorded” stand apart in the source; their conditions may differ. Like-named read-outs stand apart in the source and are kept apart here.

Tests used:
[1] = system: P. aeruginosa ATCC 27853 biofilms; assay: CDC biofilm reactor coupons, 24 h antibiotic treatment, bioburden by serial dilution plating; format: cell-based; conditions: for anti-biofilm efficacy of hypoxia-activated prodrug compared with antibiotic controls: 1 mM compound with cefepime or 0.1 mM gentamicin, 24 h
Description: Twelve hypoxia activated prodrugs from three categories were tested: nitroimidazoles (same class as metronidazole), nitrofurans, and anti-tumor agents. For the screening, S. aureus ATCC 6538 was used with the best performing compounds subsequently tested against P. aeruginosa ATCC 27853; these pathogens can then be used as inocula for infection development in the animal work.
(§1) To test each compound, the contents of an entire CDC-biofilm reactor (24 coupons/biofilm samples) were used (see FIG. 2 and FIG. 3). These experiments were designed to have multiple internal controls to enable cross-data comparisons (see FIG. 4). Using the methods described above, 4 reactor samples/coupons served as reactor controls. The remaining 20 samples/coupons were split into 4 treatment groups of 5 samples each (n=5).
Two of the treatment groups were the same for each test: one in 1 mM nafcillin (a β-lactam antibiotic) and a second in 1 mM gentamicin. Likewise, the second two treatment groups had either 1 mM nafcillin or 1 mM gentamicin both with the addition of 1 mM of the compound tested. For comparison for most compounds 1 mM ranges from ˜0.15-0.5 mg/ml, 1 or 2 Log 2 dilutions below tests in FIG. 1. For testing of P. aeruginosa biofilms (FIG. 3), the β-lactam cefepime was substituted for nafcillin due to resistance and the gentamicin concentration was reduced from 1 to 0.1 mM because of excessive kill compared with S. aureus biofilms. The other compounds were tested at the same concentrations.
Quantification of the post-treatment residual bioburden was performed by dispersing biofilm bacteria into the 2 ml treatments with its constituent bacteria by vortexing, and sonicating. The antibiotic was removed from a representative aliquot (1 ml) sample, alternating steps of centrifugally pelleting the bacteria, removing 90% of the solution, replacing 90% of the solution and repeating 2 additional times thereby decreasing the antibiotic in solution below the MIC values. The pelleted bacteria were resuspended and measured by the serial dilution plating technique. Thus, the values presented in FIGS. 2, 3 and 4 represent the cumulative change in bioburden from the surface-attached biofilms and bacteria in the treatments.

[2] = system: S. aureus ATCC 6538 biofilms; assay: as above; format: cell-based; conditions: for anti-biofilm efficacy of hypoxia-activated prodrug compared with antibiotic controls: 1 mM compound with 1 mM nafcillin or 1 mM gentamicin, 24 h; for synergy of the companion antibiotic with metronidazole against biofilms: 24 h treatment; for eradication of biofilms: concentrations over 60,000 X the MIC, 6,000 X the nephrotoxic and ototoxic thresholds, 25-50 X the cytotoxic limit
Description: For determining the broad-spectrum utility of metronidazole, respective bacterial species were grown into stationary biofilms using a 2- or 3-day species-specific growth protocol in a CDC biofilm reactor on standard 0.5 in polycarbonate coupons. Each reactor holds up to 24 coupons/samples with adherent biofilms. Bacterial bioburden, represented as colony forming units (CFUs), from five reactor samples/coupons (n=5) were quantified by first dispersing the bacterial biofilms in 2 ml of PBS by standardized vortex-sonication technique and serial-dilution plating. Importantly, this quantification technique provides bioburden data with logarithmic sensitivity. […] The gray shaded regions represent standard deviations.
(§2) Three groups of 5 coupons/samples (n=5) were placed into 2 ml treatments either containing 0.5-1 mg/ml of gentamicin, metronidazole, or combinations thereof (in CAMHB) and incubated for 24 h at 37° C. Importantly, the total antibiotic concentration (mg/ml) was fixed for each sample to enable assessment of compound synergy.
After the 24 h treatment, the bacteria adhered to coupons were quantified by rinsing the samples very gently in excess PBS followed by vortexing and sonicating to disperse the biofilm in 2 ml PBS and subsequent serial-dilution plating. The bioburden of the adhered bacteria is represented by the blue bars in FIG. 1. […] Broth bioburden is represented by the red bars in FIG. 1.
Twelve hypoxia activated prodrugs from three categories were tested: nitroimidazoles (same class as metronidazole), nitrofurans, and anti-tumor agents.
as §1, with “These experiments were designed to have multiple internal controls to enable cross-data comparisons (see FIG. 4).” left out
For testing against S. aureus biofilms, the compounds were prepared at a concentration of 1 mM in CAMHB; coupons were treated in 2 ml for 24 h. Compounds were intentionally prepared in units of molarity rather than the more common weight/volume ratios of clinicians.
This choice was made for two reasons.
Two of the treatment groups were the same for each test: one in 1 mM nafcillin (a β-lactam antibiotic) and a second in 1 mM gentamicin. […] For comparison for most compounds 1 mM ranges from ˜0.15-0.5 mg/ml, 1 or 2 Log 2 dilutions below tests in FIG. 1. […] The other compounds were tested at the same concentrations.
Quantification of the post-treatment residual bioburden was performed by dispersing biofilm bacteria into the 2 ml treatments with its constituent bacteria by vortexing, and sonicating. […] The pelleted bacteria were resuspended and measured by the serial dilution plating technique. Thus, the values presented in FIGS. 2, 3 and 4 represent the cumulative change in bioburden from the surface-attached biofilms and bacteria in the treatments.

[3] = system: E. coli; assay: Minimum inhibitory concentration (MIC) assay, planktonic bacteria; format: cell-based, Escherichia coli; conditions: for 1:1 combinations MIC is the sum of both compounds
Description: (§3) For comparison to these biofilm tests with adjunctive metronidazole, the MIC was determined for each organism and each compound tested.

[4] = system: P. aeruginosa; assay: as above; format: cell-based; conditions: for 1:1 combinations MIC is the sum of both compounds
Description: as §3

[5] = system: MRSA USA300; assay: as above; format: cell-based; conditions: for 1:1 combinations MIC is the sum of both compounds
Description: as §3

[6] = system: A. baumannii; assay: as above; format: cell-based; conditions: for 1:1 combinations MIC is the sum of both compounds
Description: as §3

[7] = system: S. aureus; assay: as above; format: cell-based
Source text: Shortcomings of clinical antibiotic susceptibility assays. The antibiotic-susceptibility assays used to guide clinical treatment and prophylaxis rely on actively-dividing planktonic bacteria (Williams, D. L. & Costerton, J. W. J Biomed Mat Res B 100, 1163-1169 (2011)). Among the assays performed by clinical reference laboratories are the minimum inhibitory concentration (MIC), and disk diffusion (Kirby-Bauer) assays. The ubiquity of these assays is owed to the fact that they are high throughput, relatively quick to perform, repeatable, and have short turnaround times. They inform clinicians regarding which antibiotic are applicable for a given infection from a simple site swab, blood, or aspirate sample. […] Thus, when a compound, such as metronidazole performs poorly in an MIC assay, a physician would be thoroughly dissuaded from using it. Likewise, in drug-development, a high MIC value would exclude potentially useful anti-biofilm agents from candidate drug libraries. […] Using orthodox clinical methodology, there would be no basis to administer metronidazole in the treatment of a S. aureus-related infections, despite its exceptional efficacy against bacterial biofilms of the same isolates. The MIC assay fails to provide any information about susceptibility profiles of bacteria that reside in the biofilm phenotype.
as §3

[8] = system: K. pneumoniae; assay: as above; format: cell-based, Klebsiella pneumoniae; conditions: for 1:1 combinations MIC is the sum of both compounds
Description: as §3

[9] = system: S. epidermidis; assay: as above; format: cell-based, Staphylococcus epidermidis; conditions: for MIC: Staphylococcus epidermidis, for 1:1 combinations MIC is the sum of both compounds
Description: as §2, §3

[10] = system: S. aureus biofilms; assay: Radical-scavenger edaravone protection of biofilms from metronidazole (FIG. 6); format: cell-based; conditions: 0-2 mg/ml edaravone with 0.25 mg/ml nafcillin and 4 mg/ml metronidazole, 24 h
Description: . S. aureus biofilms grown using a CDC biofilm reactor and treated with 2 ml solutions of CAMHB in 0.25 mg/ml nafcillin (serving as a bacteriostatic agent) and 4 mg/ml metronidazole (with herein established activity against biofilms) and the indicated concentration of the potent radical-scavenger edaravone (0-2 mg/ml). After treatment, the biofilm coupons were removed from the treatment broth, rinsed and the bioburden quantified using a method of vortexing, sonicating, and serial dilution plating.
In one experiment, S. aureus biofilms were subjected to a bacteriostatic solution of nafcillin (0.25 mg/ml) and an aggressive dose of metronidazole (4 mg/ml). The coupons were divided evenly into 5 groups (n=8) which were treated with serial concentrations of the potent radical scavenger edaravone ranging from 0-2 mg/ml. […]. In a second experiment, biofilms were treated with a small sublethal dose of the nitroimidazole pimonidazole (0.06 mg/ml). Like the other nitroimidazoles, pimonidazole is reductively activated in hypoxic cells by a nitro-reductase enzyme. In hypoxia, the reduced compound indiscriminately forms adducts with cellular components including adducts with thiol groups which can be recognized with a primary antibody by immunohistochemical staining (FIG. 5A and FIG. 9A) (Masaki, Y. et al. PLOS One 11, e0161639 (2016)). […]

[11] = system: biofilm-contaminated fixation plates; assay: Sheep model of biofilm-related orthopedic (musculoskeletal) infection; format: in vivo
Description: Use of the Pouch device in a sheep model of biofilm-related orthopedic infection. The Pouch device and two clinical standards of care (IV-vancomycin, and gentamicin-loaded Stimulan® beads) were tested in a sheep model of biofilm-related orthoepic infection. Briefly, the proximal medial aspect of the right tibia is subjected to a blast from an air cannon to simulate traumatic soft tissue damage. In a surgical procedure, the periosteum is stripped, and two biofilm-contaminated fixation plates are situated above osteotomized fractures. At necropsy, one of the fixation plates and the surrounding tissue serve for microbiological analysis whereas the plate and tissues of the second site are used for histological analysis. Four groups of sheep (n=5/group) were used in testing. The first group served as a positive control of infection. The Pouch device was tested in one group. The Pouch device was placed during the surgery and refilled daily for 10 days with 480 mg of gentamicin sulfate, 1 g of vancomycin, and 36 mg of rifampin. Ten days after surgery the Pouch device was removed, and the sheep monitored for an additional 11 days; endpoint was 21 days for the groups. For comparison, clinical standards of care were tested in the remaining two groups: IV vancomycin, and Gentamicin-loaded Stimulan® beads. […]

Nc1n[n+]([O-])c2ccccc2[n+]1[O-] [Tirapazamine]
anti-biofilm efficacy of hypoxia-activated prodrug compared with antibiotic controls [1]: significant activity
anti-biofilm efficacy of hypoxia-activated prodrug compared with antibiotic controls [2]: significant activity

NC(=O)N/N=C/c1ccc([N+](=O)[O-])o1 [nitrofurazone]
anti-biofilm efficacy of hypoxia-activated prodrug compared with antibiotic controls [2]: showed benchtop anti-biofilm utility

gentamicin
Aerobic MIC ([3]; aerobic): 0.5 µg/mL
Anaerobic MIC ([3]; anaerobic): 4 µg/mL
Aerobic MIC ([4]; aerobic): 2 µg/mL
Anaerobic MIC ([4]; anaerobic): 2 µg/mL
Aerobic MIC ([5]; aerobic): 2 µg/mL
Anaerobic MIC ([5]; anaerobic): 16 µg/mL
Aerobic MIC [6]: 2 µg/mL
Aerobic MIC ([7]; aerobic, for 1:1 combinations MIC is the sum of both compounds): 1 µg/mL
Anaerobic MIC ([7]; anaerobic, for 1:1 combinations MIC is the sum of both compounds): 8 µg/mL
MIC against S. aureus ([7]; isolate used in biofilm tests): 1 µg/mL
Aerobic MIC ([8]; aerobic): 2 µg/mL
Anaerobic MIC ([8]; anaerobic): 4 µg/mL
synergy of the companion antibiotic with metronidazole against biofilms [2]: synergistic; also recorded: considerably strengthened; also recorded: strong synergy
eradication of biofilms [2]: failed to eradicate
resistance of the isolate ([9]; isolate used in FIG. 1): complete resistance

C[C@H]1COc2c(N3CCN(C)CC3)c(F)cc3c(=O)c(C(=O)O)cn1c23 [Levofloxacin, levofloxacin]
MIC ([9]; aerobic, read-out: Aerobic MIC): 0.125 µg/mL
MIC ([9]; anaerobic, read-out: Anaerobic MIC): 0.125 µg/mL

O=C1OC(CN2CCOCC2)CN1/N=C/c1ccc([N+](=O)[O-])o1 (stereo not shown) [furaltadone]
anti-biofilm efficacy of hypoxia-activated prodrug compared with antibiotic controls [1]: remarkable efficacy
anti-biofilm efficacy of hypoxia-activated prodrug compared with antibiotic controls [2]: remarkable efficacy
anti-biofilm efficacy with β-lactam antibiotics ([2]; paired with β-lactam (nafcillin; cefepime for P. aeruginosa)): considerable efficacy

CC1=NN(c2ccccc2)C(=O)C1 [edaravone]
effect on the killing of biofilms by metronidazole [10]: neutralized the killing-effect of metronidazole in a dose dependent manner; also recorded: proportionally negates the killing power of metronidazole; also recorded: proportionally negate killing effects of metronidazole

CN[C@H](CC(C)C)C(=O)N[C@H]1C(=O)N[C@@H](CC(N)=O)C(=O)N[C@H]2C(=O)N[C@H]3C(=O)N[C@H](C(=O)N[C@H](C(=O)O)c4cc(O)cc(O)c4-c4cc3ccc4O)[C@H](O)c3ccc(c(Cl)c3)Oc3cc2cc(c3O[C@@H]2O[C@H](CO)[C@@H](O)[C@H](O)[C@H]2O[C@H]2C[C@](C)(N)[C@H](O)[C@H](C)O2)Oc2ccc(cc2Cl)[C@H]1O [vancomycin]
bioburden levels compared to the positive control ([11]; 21 days): not statistically significantly different
reduction in bacterial bioburden from the initial inocula ([11]; 21 days after inoculation, treatment for 10 days, n=5 sheep/group): 2.5 log10 units
eradication of biofilms [2]: failed to eradicate

Cn1c(COP(=O)(NCCBr)NCCBr)cnc1[N+](=O)[O-] [Evofosfamide]
anti-biofilm efficacy of hypoxia-activated prodrug compared with antibiotic controls [1]: significant activity
anti-biofilm efficacy of hypoxia-activated prodrug compared with antibiotic controls [2]: significant activity

CCOc1ccc2ccccc2c1C(=O)N[C@@H]1C(=O)N2[C@@H]1SC(C)(C)[C@@H]2C(=O)O [nafcillin]
synergy of the companion antibiotic with metronidazole against biofilms [2]: did not display synergy nor antagonism; also recorded: least synergistic

CO/N=C(\C(=O)N[C@@H]1C(=O)N2C(C(=O)[O-])=C(C[N+]3(C)CCCC3)CS[C@H]12)c1csc(N)n1 [cefepime]
synergy of the companion antibiotic with hypoxia-activated prodrugs ([1]; Gram-negative organisms): least synergistic
